Measured values taken from ChEMBL document CHEMBL1201862, “PubChem BioAssay data set” (2004).
The source made the active and inactive calls.

Key:
[1] = viability of uninfected HEp-2 cells – cell-based, HTS, cytotoxicity control for RSV inhibitor project, dose response (AID 2410); format: functional; details: human respiratory syncytial virus
Vero [2] = experiment: cells; format: functional, cell-based; details: Chlorocebus sabaeus
cells [3] = experiment: cells
cells [4] = format: functional, cell-based
Vero [5] = experiment: cells; format: functional; details: Chlorocebus sabaeus
[6] = molecular target: DNA dC->dU-editing enzyme APOBEC-3G (Homo sapiens, UniProt Q9HC16); format: functional;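 also: Dose-response counterscreen measuring inhibition of APOBEC3G DNA deaminase activity, run while confirming APOBEC3A inhibitors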
DNA dC->dU-editing enzyme APOBEC-3G, sequence (Q9HC16 whole entry): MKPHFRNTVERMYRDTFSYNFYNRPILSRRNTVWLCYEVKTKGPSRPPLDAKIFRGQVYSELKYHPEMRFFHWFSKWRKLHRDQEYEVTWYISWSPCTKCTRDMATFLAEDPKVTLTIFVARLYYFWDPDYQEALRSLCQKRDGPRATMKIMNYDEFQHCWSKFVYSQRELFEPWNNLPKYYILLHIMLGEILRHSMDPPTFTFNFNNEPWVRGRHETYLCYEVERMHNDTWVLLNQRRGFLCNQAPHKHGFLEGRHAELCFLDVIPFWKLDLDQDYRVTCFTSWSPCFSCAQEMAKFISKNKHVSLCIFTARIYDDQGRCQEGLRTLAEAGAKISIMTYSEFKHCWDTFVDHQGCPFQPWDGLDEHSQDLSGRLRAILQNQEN

[7] = molecular target: DNA dC->dU-editing enzyme APOBEC-3A (Homo sapiens, UniProt P31941); experiment: Dose Response confirmation of small molecule APOBEC3A DNA Deaminase Inhibitors via a fluorescence-based single-stranded DNA deaminase assay. [Related pubchem assays (depositor defined):AID493011, AID493024]; format: functional
DNA dC->dU-editing enzyme APOBEC-3A, sequence (P31941 whole entry): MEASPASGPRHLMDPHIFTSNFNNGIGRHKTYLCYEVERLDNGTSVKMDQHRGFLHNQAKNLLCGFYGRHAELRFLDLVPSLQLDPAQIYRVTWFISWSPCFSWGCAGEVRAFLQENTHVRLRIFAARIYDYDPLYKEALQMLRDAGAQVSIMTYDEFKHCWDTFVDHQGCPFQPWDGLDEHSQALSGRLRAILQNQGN

CAAX prenyl protease 2 = molecular target: T1, CAAX prenyl protease 2 (Saccharomyces cerevisiae S288c, UniProt Q03530); format: biochemical
T1 sequence (Q03530 whole entry): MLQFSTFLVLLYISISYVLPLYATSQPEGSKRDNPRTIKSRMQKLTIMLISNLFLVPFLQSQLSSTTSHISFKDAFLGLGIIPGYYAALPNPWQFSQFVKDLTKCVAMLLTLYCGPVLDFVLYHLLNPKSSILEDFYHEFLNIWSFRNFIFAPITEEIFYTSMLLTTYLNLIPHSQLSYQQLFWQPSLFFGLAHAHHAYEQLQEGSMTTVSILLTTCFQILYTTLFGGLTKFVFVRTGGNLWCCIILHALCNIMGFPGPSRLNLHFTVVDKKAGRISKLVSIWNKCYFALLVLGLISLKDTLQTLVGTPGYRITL

HEK293 [8] = experiment: NOD2 signaling inhibitors in MDP-stimulated cells, cell-based, uHTS, luminescence (AID 2001); format: functional; details: Homo sapiens
HEK293 [9] = experiment: cells; format: functional, cell-based; details: Homo sapiens
HEK293 [10] = experiment: cells; format: functional, cell-based; details: Homo sapiens; remark: listed apart in the source
HEK293 [11] = experiment: inhibition of NOD1-driven NF-kB reporter – cell-based, luminescence, uHTS, primary screen (AID 1578); format: functional; details: Homo sapiens
[12] = molecular target: Nucleotide-binding oligomerization domain-containing protein 2 (Homo sapiens, UniProt Q9HC29); experiment: inhibition of NOD2-driven NF-kB reporter – cell-based, luminescence, uHTS, HEK293 (AID 1566); format: functional
Nucleotide-binding oligomerization domain-containing protein 2, sequence (Q9HC29 whole entry, the tested form may be a part): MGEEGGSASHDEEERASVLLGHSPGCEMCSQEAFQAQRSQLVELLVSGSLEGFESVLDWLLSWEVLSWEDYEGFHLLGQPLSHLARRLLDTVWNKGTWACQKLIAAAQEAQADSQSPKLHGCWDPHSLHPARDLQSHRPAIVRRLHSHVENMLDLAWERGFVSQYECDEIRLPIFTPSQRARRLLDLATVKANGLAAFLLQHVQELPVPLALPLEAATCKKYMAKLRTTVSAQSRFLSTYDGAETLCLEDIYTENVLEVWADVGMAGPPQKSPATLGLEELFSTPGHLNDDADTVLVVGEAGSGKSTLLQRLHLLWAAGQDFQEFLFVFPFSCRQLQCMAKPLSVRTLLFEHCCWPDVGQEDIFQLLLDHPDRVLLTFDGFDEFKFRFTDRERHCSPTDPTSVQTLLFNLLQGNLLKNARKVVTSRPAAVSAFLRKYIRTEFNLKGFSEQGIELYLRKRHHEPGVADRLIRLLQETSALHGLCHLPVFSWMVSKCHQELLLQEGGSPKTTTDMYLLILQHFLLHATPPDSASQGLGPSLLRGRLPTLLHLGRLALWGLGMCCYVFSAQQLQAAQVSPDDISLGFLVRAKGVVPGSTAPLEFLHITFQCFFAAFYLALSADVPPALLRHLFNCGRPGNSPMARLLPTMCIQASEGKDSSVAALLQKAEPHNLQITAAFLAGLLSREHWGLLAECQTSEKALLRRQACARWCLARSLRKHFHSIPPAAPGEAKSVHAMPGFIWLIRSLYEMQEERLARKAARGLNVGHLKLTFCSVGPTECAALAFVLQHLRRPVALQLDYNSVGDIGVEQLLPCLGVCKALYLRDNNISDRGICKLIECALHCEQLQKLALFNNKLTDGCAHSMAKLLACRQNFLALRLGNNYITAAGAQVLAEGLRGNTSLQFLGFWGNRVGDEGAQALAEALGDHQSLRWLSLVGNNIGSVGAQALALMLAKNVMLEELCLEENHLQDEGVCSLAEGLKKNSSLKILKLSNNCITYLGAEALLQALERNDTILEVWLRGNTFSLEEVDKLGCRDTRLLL

HEK293 [13] = experiment: cells; format: functional, cell-based; details: Homo sapiens; remark: listed apart in the source
[14] = molecular target: Peroxisome proliferator-activated receptor gamma/Nuclear receptor coactivator 3 (Homo sapiens, UniProt P37231); experiment: (§1) TR-FRET dose response biochemical High Throughput Screening assay for agonists of the steroid receptor coactivator 3 (SRC-3) recruitment by the peroxisome proliferator-activated receptor gamma (PPAR gamma): non-selective agonists. [Related pubchem assays: 1301 (Confirmation screen.), 1048 (Primary screen.)]; format: functional
Peroxisome proliferator-activated receptor gamma/Nuclear receptor coactivator 3, sequence (P37231 whole entry): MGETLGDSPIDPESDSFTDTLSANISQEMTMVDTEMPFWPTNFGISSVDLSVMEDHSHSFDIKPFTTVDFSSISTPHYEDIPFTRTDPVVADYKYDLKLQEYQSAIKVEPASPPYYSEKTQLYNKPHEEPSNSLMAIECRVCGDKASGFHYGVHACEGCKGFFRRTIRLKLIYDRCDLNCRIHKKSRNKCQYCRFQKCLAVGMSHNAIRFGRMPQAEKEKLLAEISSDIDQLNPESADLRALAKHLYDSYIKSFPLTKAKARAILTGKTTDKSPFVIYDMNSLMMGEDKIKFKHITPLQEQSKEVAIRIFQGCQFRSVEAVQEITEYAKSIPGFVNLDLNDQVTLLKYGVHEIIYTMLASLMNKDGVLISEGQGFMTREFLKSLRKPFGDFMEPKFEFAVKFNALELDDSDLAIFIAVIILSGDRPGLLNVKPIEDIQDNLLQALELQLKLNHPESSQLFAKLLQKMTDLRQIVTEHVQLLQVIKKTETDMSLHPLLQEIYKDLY
Peroxisome proliferator-activated receptor gamma/Nuclear receptor coactivator 3, sequence (Q9Y6Q9 whole entry, further chain): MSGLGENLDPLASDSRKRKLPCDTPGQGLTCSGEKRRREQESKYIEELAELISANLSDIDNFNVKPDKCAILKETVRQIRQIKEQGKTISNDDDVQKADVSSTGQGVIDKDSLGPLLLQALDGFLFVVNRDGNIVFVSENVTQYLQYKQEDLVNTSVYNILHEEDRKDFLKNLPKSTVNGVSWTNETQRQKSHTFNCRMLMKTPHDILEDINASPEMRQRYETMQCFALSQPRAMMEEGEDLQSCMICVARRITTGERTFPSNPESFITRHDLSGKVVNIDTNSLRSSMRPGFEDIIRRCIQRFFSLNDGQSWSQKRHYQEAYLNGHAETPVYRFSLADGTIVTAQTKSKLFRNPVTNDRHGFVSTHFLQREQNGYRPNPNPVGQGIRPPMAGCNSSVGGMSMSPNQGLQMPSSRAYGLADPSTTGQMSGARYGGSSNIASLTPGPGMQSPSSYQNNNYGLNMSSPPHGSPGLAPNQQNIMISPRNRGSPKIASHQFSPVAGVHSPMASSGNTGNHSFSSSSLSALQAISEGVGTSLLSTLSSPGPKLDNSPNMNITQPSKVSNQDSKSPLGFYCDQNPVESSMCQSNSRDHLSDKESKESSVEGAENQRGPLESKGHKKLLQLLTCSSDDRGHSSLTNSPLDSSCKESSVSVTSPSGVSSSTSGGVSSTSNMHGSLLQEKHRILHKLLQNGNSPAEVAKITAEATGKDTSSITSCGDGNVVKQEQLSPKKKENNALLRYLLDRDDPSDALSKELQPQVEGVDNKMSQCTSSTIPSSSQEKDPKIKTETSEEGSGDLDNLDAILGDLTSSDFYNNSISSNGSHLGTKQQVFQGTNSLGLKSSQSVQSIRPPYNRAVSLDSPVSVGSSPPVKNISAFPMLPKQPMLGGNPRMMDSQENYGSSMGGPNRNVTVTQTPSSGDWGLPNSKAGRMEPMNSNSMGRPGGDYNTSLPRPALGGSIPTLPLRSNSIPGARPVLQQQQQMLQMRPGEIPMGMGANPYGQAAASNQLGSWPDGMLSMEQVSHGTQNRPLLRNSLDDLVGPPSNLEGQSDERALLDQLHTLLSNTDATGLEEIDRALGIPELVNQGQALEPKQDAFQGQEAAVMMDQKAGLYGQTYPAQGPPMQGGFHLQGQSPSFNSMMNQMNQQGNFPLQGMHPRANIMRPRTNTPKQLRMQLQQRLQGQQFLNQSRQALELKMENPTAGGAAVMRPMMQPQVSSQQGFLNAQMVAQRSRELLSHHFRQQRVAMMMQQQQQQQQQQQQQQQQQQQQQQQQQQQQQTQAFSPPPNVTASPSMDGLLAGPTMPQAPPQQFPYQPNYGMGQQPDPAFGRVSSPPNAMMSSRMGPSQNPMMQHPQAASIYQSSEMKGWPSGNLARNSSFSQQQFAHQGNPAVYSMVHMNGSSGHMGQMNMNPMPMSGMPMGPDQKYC

[15] = molecular target: T2, Orexin/Hypocretin receptor type 1 (Homo sapiens, UniProt O43613); experiment: (§2) Fluorescence-based cell-based high throughput dose response assay for antagonists of the orexin 1 receptor (OX1R; HCRTR1). [Related pubchem assays (depositor defined):AID434989, AID435008, AID463079, AID485270, AID492963, AID492964, AID492965, AID493232, AID504717, AID504718]; format: functional
T2 sequence (O43613 whole entry): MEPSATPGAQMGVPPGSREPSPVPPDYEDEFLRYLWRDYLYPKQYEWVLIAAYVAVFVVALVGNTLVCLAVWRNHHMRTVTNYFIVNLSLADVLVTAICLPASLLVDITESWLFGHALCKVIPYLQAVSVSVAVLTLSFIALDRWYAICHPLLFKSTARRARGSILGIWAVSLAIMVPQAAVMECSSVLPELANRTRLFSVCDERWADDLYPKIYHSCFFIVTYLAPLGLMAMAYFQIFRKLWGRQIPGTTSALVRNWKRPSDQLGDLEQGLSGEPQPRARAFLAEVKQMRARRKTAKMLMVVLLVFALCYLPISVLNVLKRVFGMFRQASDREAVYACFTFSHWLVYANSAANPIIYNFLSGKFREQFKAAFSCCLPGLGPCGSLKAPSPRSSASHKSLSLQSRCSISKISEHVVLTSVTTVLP

[16] = molecular target: Peroxisome proliferator-activated receptor gamma/Nuclear receptor coactivator 1 (Homo sapiens, UniProt P37231); experiment: as §1, with “1 (SRC-1)” for “3 (SRC-3)”, “assays (depositor defined):AID1300, AID1808, AID504735, AID631]” for “assays: 1301 (Confirmation screen.), 1048 (Primary screen.)]”; format: protein assay
CHO-K1 = experiment: (§3) Counterscreen for antagonists of the orexin 1 receptor (OX1R; HCRTR1): Homogeneous time resolved fluorescence (HTRF)-based cell-based dose response assay to identify antagonists of the parental CHO-K1 cell line. [Related pubchem assays (depositor defined):AID434989, AID435008, AID463079, AID485270, AID492963, AID492964, AID492965, AID493232, AID504699, AID504701]; format: functional; details: Cricetulus griseus
Orexin receptor type 2 [17] = molecular target: T3, Orexin receptor type 2 (Homo sapiens, UniProt O43614); experiment: Counterscreen assay for antagonists of the orexin 1 receptor (OX1R; HCRTR1): Fluorescence-based cell-based dose response assay for antagonists of the orexin 2 receptor (OX2R; HCRTR2), run by assay provider.; format: functional
T3 sequence (O43614 whole entry): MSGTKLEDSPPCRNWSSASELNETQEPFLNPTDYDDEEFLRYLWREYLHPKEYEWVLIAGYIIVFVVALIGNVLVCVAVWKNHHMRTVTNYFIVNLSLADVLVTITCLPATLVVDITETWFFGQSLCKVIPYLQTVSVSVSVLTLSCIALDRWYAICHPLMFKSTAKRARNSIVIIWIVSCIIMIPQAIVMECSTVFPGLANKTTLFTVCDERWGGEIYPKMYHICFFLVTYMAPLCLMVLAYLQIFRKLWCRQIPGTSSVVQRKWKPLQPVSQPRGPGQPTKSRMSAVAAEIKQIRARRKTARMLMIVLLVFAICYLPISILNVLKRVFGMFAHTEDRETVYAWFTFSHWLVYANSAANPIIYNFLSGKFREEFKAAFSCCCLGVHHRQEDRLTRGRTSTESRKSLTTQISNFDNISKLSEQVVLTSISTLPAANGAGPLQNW

Orexin receptor type 2 [18] = molecular target: T3, Orexin receptor type 2; experiment: Counterscreen assay for antagonists of the orexin 1 receptor (OX1R; HCRTR1): Homogeneous Time Resolved Fluorescence (HTRF)-based cell-based dose response assay for antagonists of the orexin 2 receptor (OX2R; HCRTR2), run by assay provider.; format: functional
[19] = molecular target: T2, Orexin/Hypocretin receptor type 1; experiment: as §2, with “Homogeneous Time Resolved Fluorescence (HTRF)-based” for “Fluorescence-based”; format: functional
[20] = as §3, with “Fluorescence-based” for “Homogeneous time resolved fluorescence (HTRF)-based”, “cell-based high throughput” for “cell-based”, “CHO” for “CHO-K1”; format: functional
[21] = molecular target: Peroxisome proliferator-activated receptor gamma/Nuclear receptor coactivator 2 (Homo sapiens, UniProt P37231); experiment: TR-FRET dose response biochemical High Throughput Screening assay for agonists of the steroid receptor coactivator 2 (SRC-2) recruitment by the peroxisome proliferator-activated receptor gamma (PPAR gamma): non-selective agonists. [Related pubchem assays: 1297, 1032 ]; format: functional
Cytochrome P450 2C19 = Cytochrome P450 2C19 (Homo sapiens, UniProt P33261); experiment: Cytochrome panel assay with activity outcomes. Panel member name: p450-cyp2c19 Compounds with AC50 equal or less than 10 uM are considered active; format: functional; details: read-out: AC50
Cytochrome P450 2C19, sequence (P33261 whole entry): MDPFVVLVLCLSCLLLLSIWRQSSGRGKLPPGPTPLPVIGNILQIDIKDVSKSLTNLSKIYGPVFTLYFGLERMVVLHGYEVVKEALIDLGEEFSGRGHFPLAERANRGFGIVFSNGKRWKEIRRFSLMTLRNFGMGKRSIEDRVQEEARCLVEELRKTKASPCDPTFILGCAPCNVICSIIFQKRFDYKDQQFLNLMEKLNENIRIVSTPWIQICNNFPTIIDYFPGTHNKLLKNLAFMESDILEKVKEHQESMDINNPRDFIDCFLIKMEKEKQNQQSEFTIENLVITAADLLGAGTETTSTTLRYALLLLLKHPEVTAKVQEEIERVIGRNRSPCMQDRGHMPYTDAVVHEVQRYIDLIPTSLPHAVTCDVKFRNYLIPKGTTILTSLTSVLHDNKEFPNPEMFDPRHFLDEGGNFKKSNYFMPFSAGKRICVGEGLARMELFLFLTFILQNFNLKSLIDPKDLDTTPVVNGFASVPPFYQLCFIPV

Cytochrome P450 2D6 = Cytochrome P450 2D6 (Homo sapiens, UniProt P10635);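 also: CYP2D6 member of a cytochrome P450 panel assay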
Cytochrome P450 2D6, sequence (P10635 whole entry): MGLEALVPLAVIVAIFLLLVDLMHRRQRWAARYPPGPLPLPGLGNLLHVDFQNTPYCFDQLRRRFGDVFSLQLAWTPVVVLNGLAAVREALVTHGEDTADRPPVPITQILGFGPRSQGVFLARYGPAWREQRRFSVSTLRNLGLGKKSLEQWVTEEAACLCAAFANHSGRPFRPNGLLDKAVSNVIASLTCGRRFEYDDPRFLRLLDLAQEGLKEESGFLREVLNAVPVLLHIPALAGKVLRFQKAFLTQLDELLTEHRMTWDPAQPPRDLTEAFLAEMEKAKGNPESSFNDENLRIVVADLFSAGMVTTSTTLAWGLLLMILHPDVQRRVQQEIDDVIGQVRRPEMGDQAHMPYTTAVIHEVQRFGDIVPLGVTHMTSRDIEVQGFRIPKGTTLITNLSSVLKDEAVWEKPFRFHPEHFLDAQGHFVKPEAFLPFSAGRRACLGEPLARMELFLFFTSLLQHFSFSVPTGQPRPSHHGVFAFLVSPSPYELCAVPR

[22] = molecular target: FAD-linked sulfhydryl oxidase ALR (Homo sapiens, UniProt P55789); experiment: ALR-catalysed DTT oxidation blockers – biochemical, H2O2 detection, luminescence, cherry-pick, dose response (AID 493248)
FAD-linked sulfhydryl oxidase ALR, sequence (P55789 whole entry): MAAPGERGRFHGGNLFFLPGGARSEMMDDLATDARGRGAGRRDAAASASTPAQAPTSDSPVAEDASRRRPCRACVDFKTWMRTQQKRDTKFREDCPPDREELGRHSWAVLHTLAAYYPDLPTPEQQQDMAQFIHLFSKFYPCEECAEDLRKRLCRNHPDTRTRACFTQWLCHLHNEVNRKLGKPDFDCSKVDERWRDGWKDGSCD

[23] = activation of miR-122 Renilla sensor silencing – cell-based, Huh7 psiCHECK-miR122, Renilla luciferase, cherry-picked, dose response (AID 651956); format: functional;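 also: huh7 hepatoma cells stably carrying a psiCHECK-2 miR-122 sensor plasmid; renilla luciferase signal reporting endogenous miR-122 activity after 48 h compound exposure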

For `Cc1ccc2c(c1)cc(C(=O)NCc1ccccc1)n2C`, the CC50 [1] was 44.9 µM (active), the IC50 (Vero [2]) was 17.8 µM (active) and the IC50 (cells [3]) was 24 µM (active). For the same compound, the EC50 (cells [4]) was > 350 µM (not active).

With `CCCN(CCC)CCNC(=O)C1CCN(Cc2nc(-c3ccc(Cl)cc3)oc2C)CC1` the IC50 (Vero [2]) was 10.8 µM (active) and the CC50 (Vero [5]) was > 25 µM (active).

For `CN1CCN(S(=O)(=O)c2ccc(C3CCCCC3)cc2)CC1`, the IC50 [6] was 16.8 µM (active) and the IC50 [7] was 9.2 µM (active).

For `COc1ccc(OC)c(Cc2nnc(CCC(=O)N3CCN(C4CCCC4)CC3)o2)c1`, the AC50 (CAAX prenyl protease 2) was 7.48 µM (active).

In the case of `Cc1c(Nc2c3ccccc3nc3ccccc23)c(=O)n(-c2ccccc2)n1C`, the IC50 (HEK293 [8]) is reported as > 20 µM (inactive), the IC50 (HEK293 [9]) is reported as > 20 µM (inactive) and the IC50 (HEK293 [10]) is reported as > 20 µM (inactive). For the same compound, the EC50 (HEK293 [11]) was > 20 µM (inactive), the EC50 [12] was > 20 µM (inactive) and the IC50 (HEK293 [13]) was > 20 µM (inactive).

With `Cc1cc(SCC(=O)c2ccc3c(c2)OCO3)nc2ccccc12` the EC50 [14] was > 79.4 µM (not active), the IC50 [15] was 18.8 µM (inactive) and the EC50 [16] was 10.2 µM (inactive). The IC50 (CHO-K1) was > 66.2 µM (inactive), the IC50 (Orexin receptor type 2 [17]) was 14.1 µM (inactive) and the IC50 (Orexin receptor type 2 [18]) was 11.2 µM (inactive). For the same compound, the IC50 [19] was 3.34 µM (active), the IC50 [20] was > 49.7 µM (inactive) and the EC50 [21] was 10.4 µM (not active).

For `Cc1ccccc1N(CC(=O)NC1CCCC1)C(=O)c1oc(C(C)(C)C)cc1C`, the IC50 [15] was 3.52 µM (active), the IC50 (CHO-K1) was > 66.2 µM (inactive) and the IC50 (Orexin receptor type 2 [17]) was > 88.8 µM (inactive). For the same compound, the IC50 (Orexin receptor type 2 [18]) was > 50 µM (inactive), the IC50 [19] was 0.264 µM (active) and the IC50 [20] was > 49.8 µM (inactive).

With `C[N+](C)(C)c1ccccc1` the IC50 [6] was 3.33 µM (active) and the IC50 [7] was 2.16 µM (active).

With `OCc1ccc(-c2nn(Cc3ccccc3)c3ccccc23)o1` the AC50 (Cytochrome P450 2C19) was 10 µM (inconclusive), the AC50 (Cytochrome P450 2D6) was 39.8 µM (inconclusive) and the AC50 [22] was 10 µM (active). For the same compound, the AC50 [23] was 0.547 µM (active).

For `C[N+]1(CCOC(=O)C2(c3ccccc3)CCCC2)CCCCC1`, the IC50 [6] was 3.57 µM (active) and the IC50 [7] was 3.89 µM (active).
